Reference: paper PMC11511367, “Antiproliferative Effects of Naja anchietae and Naja senegalensis Venom Peptides on Glioblastoma Cell Lines” (Toxins, 2024)
Bridges are numbered along the chain shown (N, C = ends). Where no end group is shown, it is not given here.

Legend:
Format in all cases: cell-based
T98G glioblastoma cells = assay: MTT antiproliferative assay on T98G cells; conditions: Brain glioblastoma T98G, 72 h, 1 × 10^−7 to 1 × 10^−4 Molar, OD 570 nm, three-parameter log-logistic fit
From the text: (§1) The purified peptides, named CTNsen1, CTNsen2, CTNsen3, CTNanc1, CTNanc2, and CTNanc3 from Naja senegalensis and Naja anchietae respectively, were subsequently tested for their antiproliferative effects on several glioblastoma cell lines (U87, U251, and T98G) as well as on primary human umbilical vein endothelial cells (HUVECs). A series of increasing concentrations (1 × 10^−⁷, 0.5 × 10^−6, 1 × 10^−⁶, 0.5 × 10^−5, 1 × 10^−⁵, 0.5 × 10^−4, and 1 × 10^−⁴ Molar) were used. The dose-response curves for each peptide are depicted in Figure 9, Figure 10, Figure 11 and Figure 12.
Figure 11 Antiproliferative activity of CTNsen1 (a), CTNsen2 (b), CTNsen3 (c), CTNanc1 (d), CTNanc2 (e), and CTNanc3 (f) from Naja senegalensis and Naja anchietae, respectively. […] The OD was measured at 570 nm.
(§2) U87 and T98G were plated at a density of 4000 cells per well and U251 cells at a density of 2500 cells per well in microtiter plates and allowed to adhere overnight at 37 °C in a 5% CO2 humidified environment. The following day, the medium was replaced with fresh medium containing our venom peptides under investigation. After a 72-h incubation period, cells were treated with MTT (Promega, Lyon, France) at a concentration of 0.5 mg/mL. […] Viable cells were then quantified by measuring the absorbance at 570 nm. […] Model calibration was assessed using the drm() function. […]

MCF-7 cells = assay: MTT antiproliferative assay on MCF-7 cells (venom screening and isolated peptides); conditions: MCF7 cells, 72 h, 4 µg and 20 µg of peptide
Protocol: We screened nearly 40 different animal venoms to evaluate their potential anticancer properties. The venoms were solubilized at a concentration of 1.5 mg/mL in water. The antiproliferative activity of these venoms was tested at two concentrations, 3 µg and 15 µg, against MCF-7 cells (Appendix A, Figure A1).
Figure A1 Antiproliferative activity of different animal venoms. […] The OD was measured at 570 nm after 72 h of treatment. The abbreviations include Na: Naja anchietae; Vg: Viridovipera gumprechti; Vk: Vipera kaznakovi; Tv: Trimeresurus vogeli; Tt: Trimeresurus trigonocephalus; Ach: Atheris chlorechis; Ath ni: Atheris nitschei nitschei; Nox: Naja oxiana; Np: Naja philippinensis; At sq: Atheris squamigera; Nhl: Naja haje legionis; Por Oph: Porthidium ophryomegas; Ph: Parias hageni; Ns: Naja senegalensis.
Figure A2 Antiproliferative activity of CTNsen1, CTNsen2, CTNsen3, CTNanc1, CTNanc2, and CTNanc3 from Naja senegalensis (b) and Naja anchietae (a), respectively. […] Na and Ns here were used as a positive control at two concentrations (3 µg and 15 µg). The OD was measured at 570 nm.

U251 glioblastoma cells = assay: MTT antiproliferative assay on U251 cells; conditions: Brain glioblastoma U251, MTT, 72 h, 1 × 10^−7 to 1 × 10^−4 Molar, OD 570 nm; three-parameter log-logistic fit
From the text: as §1
Figure 10 Antiproliferative activity of CTNsen1 (a), CTNsen2 (b), CTNsen3 (c), CTNanc1 (d), CTNanc2 (e), and CTNanc3 (f) from Naja senegalensis and Naja anchietae respectively. […] The OD was measured at 570 nm.
as §2

LKCHQLVPPFWKTCPEGKNLCYKMYMVSSSTVPVKRGCIDVCPKNSALVKYVCCNTDKCN (disulfide 3-21, 14-38, 42-53, 54-59) [CTNsen1]
IC50 (μg/mL), T98G (T98G glioblastoma cells): Inactive | Antiproliferative activity of isolated peptides (MCF-7 cells): activity was confirmed | IC50 (μg/mL), U251 (U251 glioblastoma cells): Inactive
